Tests used:
Assay in all cases: Test E pre-/postemergence plant response
Format in all cases: in vivo
Settings in all cases: scale 0 to 100
[1] = system: surinam grass (Brachiaria decumbens)
Source text: (§1) Seeds of plant species selected from bermudagrass (Cynodon dactylon), Surinam grass (Brachiaria decumbens), large crabgrass (Digitaria sanguinalis), green foxtail (Setaria viridis), goosegrass (Eleusine indica), johnsongrass (Sorghum halepense), kochia (Kochia scoparia), pitted morningglory (Ipomoea lacunosa), purple nutsedge (Cyperus rotundus), common ragweed (Ambrosia elation), black mustard (Brassica nigra), guineagrass (Panicum maximum), dallisgrass (Paspalum dilatatum), barnyardgrass (Echinochloa crus-galli), southern (S.) sandbur (Cenchrus echinatus), common sowthistle (Sonchus oleraceous), prickly sida (Sida spinosa), Italian ryegrass (Lolium multiflorum), common purslane (Portulaca oleracea), broadleaf signalgrass (Brachiaria platyphylla), common groundsel (Senecio vulgaris), common chickweed (Stellaria media), Virginia (V.) dayflower (Commelina virginica), tropical (T.) spiderwort (Commelina benghalensis), annual bluegrass (Poa annua), naked crabgrass (Digitaria nuda), itchgrass (Rottboellia cochinchinensis), quackgrass (Elytrigia repens), Canada horseweed (Conyza canadensis), field bindweed (Convolvulus arvensis), spanishneedles (Bidens bipinnata), common mallow (Malva sylvestris) and Russian thistle (Salsola kali) were planted and treated preemergence with test chemicals formulated in a non-phytotoxic solvent mixture which included a surfactant. At the same time, plants selected from these weed species were treated with postemergence applications of some of the test chemicals formulated in the same manner. Plants ranged in height from 2 to 18 cm (1- to 4-leaf stage) for postemergence treatments.
(§2) Treated plants and controls were maintained in a greenhouse for 14 to 21 days, after which time all species were compared to controls and visually evaluated. Plant response ratings, summarized in Table E, are based on a scale of 0 to 100 where 0 is no effect and 100 is complete control. A dash (-) response means no test result.

[2] = system: Italian ryegrass (Lolium multiflorum)
Source text: as §1, §2

[3] = system: dallisgrass (Paspalum dilatatum)
Source text: as §1, §2

[4] = system: broadleaf signalgrass (Brachiaria platyphylla)
Source text: as §1, §2

[5] = system: itchgrass (Rottboellia cochinchinensis)
Source text: as §1, §2

[6] = system: common purslane (Portulaca oleracea)
Source text: as §1, §2

[7] = system: johnsongrass (Sorghum halepense)
Source text: as §1, §2

[8] = system: bermudagrass (Cynodon dactylon)
Source text: as §1, §2

[9] = system: black mustard (Brassica nigra)
Source text: as §1, §2

[10] = system: naked crabgrass (Digitaria nuda)
Source text: as §1, §2

[11] = system: quackgrass (Elytrigia repens)
Source text: as §1, §2

CCc1cc(-c2ccc(C(F)(F)F)cc2)nn1-c1c(OC(=O)OC(C)C)cnn(C)c1=O [Compound 12]
Plant response rating, Surinam Grass ([1]; 4 g ai/ha, Postemergence): 35 | Plant response rating, Surinam Grass ([1]; 31 g ai/ha, Preemergence): 95 | Plant response rating, Surinam Grass ([1]; Postemergence, 8 g ai/ha): 90 | Plant response rating, Surinam Grass ([1]; Postemergence, 31 g ai/ha): 98 | Plant response rating, Surinam Grass ([1]; Preemergence, 4 g ai/ha): 0 | Plant response rating, Ryegrass, Italian ([2]; 4 g ai/ha, Postemergence): 75 | Plant response rating, Ryegrass, Italian ([2]; 31 g ai/ha, Preemergence): 98 | Plant response rating, Ryegrass, Italian ([2]; Postemergence, 8 g ai/ha): 100 | Plant response rating, Ryegrass, Italian ([2]; Postemergence, 31 g ai/ha): 100 | Plant response rating, Ryegrass, Italian ([2]; Preemergence, 4 g ai/ha): 40 | Plant response rating, Dallisgrass ([3]; 4 g ai/ha, Postemergence): 65 | Plant response rating, Dallisgrass ([3]; 8 g ai/ha, Preemergence): 40 | Plant response rating, Dallisgrass ([3]; 31 g ai/ha, Preemergence): 100 | Plant response rating, Dallisgrass ([3]; Postemergence, 8 g ai/ha): 75 | Plant response rating, Dallisgrass ([3]; Postemergence, 31 g ai/ha): 85 | Plant response rating, Dallisgrass ([3]; Preemergence, 4 g ai/ha): 0 | Plant response rating, Signalgrass ([4]; 4 g ai/ha, Postemergence): 65 | Plant response rating, Signalgrass ([4]; 31 g ai/ha, Preemergence): 95 | Plant response rating, Signalgrass ([4]; Postemergence, 8 g ai/ha): 80 | Plant response rating, Signalgrass ([4]; Postemergence, 31 g ai/ha): 100 | Plant response rating, Signalgrass ([4]; Preemergence, 4 g ai/ha): 0 | Plant response rating, Itchgrass ([5]; 4 g ai/ha, Postemergence): 0 | Plant response rating, Itchgrass ([5]; 31 g ai/ha, Preemergence): 80 | Plant response rating, Itchgrass ([5]; Postemergence, 8 g ai/ha): 50 | Plant response rating, Itchgrass ([5]; Postemergence, 31 g ai/ha): 95 | Plant response rating, Itchgrass ([5]; Preemergence, 4 g ai/ha): 20 | Plant response rating, Purslane ([6]; 4 g ai/ha, Postemergence): 0 | Plant response rating, Purslane ([6]; 31 g ai/ha, Preemergence): 0 | Plant response rating, Purslane ([6]; Postemergence, 8 g ai/ha): 0 | Plant response rating, Purslane ([6]; Postemergence, 31 g ai/ha): 0 | Plant response rating, Purslane ([6]; Preemergence, 4 g ai/ha): 0 | Plant response rating, Johnsongrass ([7]; 4 g ai/ha, Postemergence): 95 | Plant response rating, Johnsongrass ([7]; 31 g ai/ha, Preemergence): 95 | Plant response rating, Johnsongrass ([7]; Postemergence, 8 g ai/ha): 95 | Plant response rating, Johnsongrass ([7]; Postemergence, 31 g ai/ha): 95 | Plant response rating, Johnsongrass ([7]; Preemergence, 4 g ai/ha): 75 | Plant response rating, Bermudagrass ([8]; 4 g ai/ha, Postemergence): 15 | Plant response rating, Bermudagrass ([8]; 8 g ai/ha, Preemergence): 75 | Plant response rating, Bermudagrass ([8]; 31 g ai/ha, Preemergence): 95 | Plant response rating, Bermudagrass ([8]; Postemergence, 8 g ai/ha): 70 | Plant response rating, Bermudagrass ([8]; Postemergence, 31 g ai/ha): 95 | Plant response rating, Bermudagrass ([8]; Preemergence, 4 g ai/ha): 35 | Plant response rating, Mustard, Black ([9]; 4 g ai/ha, Postemergence): 0 | Plant response rating, Mustard, Black ([9]; 8 g ai/ha, Preemergence): 0 | Plant response rating, Mustard, Black ([9]; 31 g ai/ha, Preemergence): 0 | Plant response rating, Mustard, Black ([9]; Postemergence, 8 g ai/ha): 0 | Plant response rating, Mustard, Black ([9]; Postemergence, 31 g ai/ha): 0 | Plant response rating, Mustard, Black ([9]; Preemergence, 4 g ai/ha): 0 | Plant response rating, Crabgrass, Naked ([10]; 4 g ai/ha, Postemergence): 50 | Plant response rating, Crabgrass, Naked ([10]; 8 g ai/ha, Preemergence): 95 | Plant response rating, Crabgrass, Naked ([10]; 31 g ai/ha, Preemergence): 100 | Plant response rating, Crabgrass, Naked ([10]; Postemergence, 8 g ai/ha): 90 | Plant response rating, Crabgrass, Naked ([10]; Postemergence, 31 g ai/ha): 95 | Plant response rating, Crabgrass, Naked ([10]; Preemergence, 4 g ai/ha): 15 | Plant response rating, Quackgrass ([11]; 4 g ai/ha, Postemergence): 20 | Plant response rating, Quackgrass ([11]; 31 g ai/ha, Preemergence): 80 | Plant response rating, Quackgrass ([11]; Postemergence, 8 g ai/ha): 30 | Plant response rating, Quackgrass ([11]; Postemergence, 31 g ai/ha): 95 | Plant response rating, Quackgrass ([11]; Preemergence, 4 g ai/ha): 0

Source: patent publication US20100267561A1, “HERBICIDAL PYRIDAZINONE DERIVATIVES” (priority 2007, published 2010)
